Measured values reported in patent US8809366B2, “Thienopyridine ester derivative containing cyano group, preparation method, use and composition thereof” (Tianjin Institute of Pharmaceutical Research, priority 2011, dated 2014).

What was measured:
[1] = 1000 mg/kg intragastric once a day; from the third day of administration
Method: Two Weeks of Toxicity Studies on Rats (Compared with Clopidogrel)
100 mg/ml suspension is prepared before use, and administrated intragastricly at 1 ml/100 g every morning.
Experimental animals: SD rats weighing about 180 g, 7 female and 7 male in each group.
The same amount of solvent is administrated intragastricly to the blank control group, and equal-dose (1000 mg/kg) of Clopidogrel is administrated intragastricly to the positive control group.

[2] = rat, in vivo
[3] = tested on: ADP-induced platelet aggregation; experiment: Inhibiting effect on rat platelet aggregation (ADP-induced, PRP taken 2 h after intragastric administration); format: in vivo, Wistar rats; details: blood 2 h after administration, ADP final concentration 1.08 μM, X ± SD
Method: Experiments of Inhibiting Effect on Rat Platelet Aggregation:
ADP: produced by SIGMA Co.
Wistar rats: SPF grade, male, provided by The Institute of Laboratory Animal Science, Chinese Academy of Medical Sciences, license No. SCXK (jing) 2005-0013.
PAM-3 Dual Channel Platelet Aggregometer: produced by Jiangsu Danyang Radio Factory.
Healthy male Wistar rats weighing 200-250 g were selected and randomly divided into groups. The experiments were carried out in three batches, and each batch was distributed into a normal control group and 6 compound groups, and totally two dose groups were tested in each batch. […] Intragastric administration with a dose volume of 10 ml/kg·bw was used. The normal control group was given the same amount of 0.5% CMC-Na. 2 h after administration, 40 mg/kg of pentobarbital sodium was intraperitoneally injected (1 ml/kg) for anesthesia, and blood was collected from the abdominal aorta. 3.8% sodium citrate was used for anticoagulation, and platelet-rich plasma (PRP) and platelet-poor plasma (PPP) were prepared respectively. Maximum percentage of ADP (final concentration: 1.08 μM) induced platelet aggregation was tested on a PAM-3 Dual Channel Platelet Aggregometer.

[4] = 15 mg/kg intragastric, n=10, control group 74.2 ± 20.8
[5] = 30 mg/kg intragastric, n=6, control group 47.1 ± 14.2

| Structure (SMILES) | hemorrhagic secretions around the rats' nasal [1] | conversion rate into active metabolites thiols, higher than Clopidogrel [2] | time to peak concentration of active metabolites [2] [min] | Maximum percentage of aggregation [3, 4] [%] | Maximum percentage of aggregation [3, 5] [%] |
| --- | --- | --- | --- | --- | --- |
| COC(=O)[C@H](c1ccccc1Cl)N1CCc2sccc2C1 [Clopidogrel, reference compound] | hemorrhagic secretions around the rats' nasal can be observed | – | – | – | – |
| CC(=O)Oc1cc2c(s1)CCN(Cc1ccccc1C#N)C2 [Compound I-1, (5-(2-cyanobenzyl)-4,5,6,7-tetrahydrothieno[3,2-c]pyridin-2-yl)acetate] | obviously slight in the compound I-1 group than in the Clopidogrel group | about 5 times | 50 to 60 | 20.5 ± 25.5 | 8.4 ± 8.3 |
| CC(=O)Oc1cc2c(s1)CCN(Cc1cccc(C#N)c1)C2 [Compound I-2, (5-(3-cyanobenzyl)-4,5,6,7-tetrahydrothieno[3,2-c]pyridin-2-yl)acetate] | – | about 5 times | 50 to 60 | 29.8 ± 24.3 | 4.9 ± 28.4 |
| CC(=O)Oc1cc2c(s1)CCN(Cc1ccc(C#N)cc1)C2 [Compound I-3] | – | about 5 times | 50 to 60 | 22.7 ± 24.1 | 8.7 ± 17.8 |
